“And” between values parts separate entries of the source, which are not always exact repeats. Equal entries are not always repeated. Toxic doses and inconclusive results are not listed.
Test system: P388 leukemia ip, CD2F1 mice, survival T/C
Assay: NCI In Vivo Anticancer Drug Screen. Data for tumor model P388 Leukemia (intraperitoneal) in CD2F1 (CDF1) mice
Conditions: endpoint: median survival time, higher = longer survival
In short: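 Mice carrying the transplanted tumor received test compound or vehicle. Survival was recorded in each group, and the value is the treated-group measurement divided by that of the vehicle-treated control group.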

[1] = dose: 50.0 mg/kg/injection, schedule: Q01DX009 (ip), vehicle: saline
[2] = dose: 100.0 mg/kg/injection, schedule: Q01DX009 (ip), vehicle: saline
[3] = dose: 200.0 mg/kg/injection, schedule: Q01DX009 (ip), vehicle: saline
[4] = dose: 12.5 mg/kg/injection, schedule: Q01DX005 (ip), vehicle: saline with Tween-80
[5] = dose: 25.0 mg/kg/injection, schedule: Q01DX005 (ip), vehicle: saline with Tween-80
[6] = dose: 60.0 mg/kg/injection, schedule: Q01DX005 (ip), vehicle: saline with Tween-80
[7] = dose: 120.0 mg/kg/injection, schedule: Q01DX005 (ip), vehicle: saline with Tween-80
[8] = dose: 240.0 mg/kg/injection, schedule: Q01DX005 (ip), vehicle: saline with Tween-80
[9] = dose: 200.0 mg/kg/injection, schedule: Q04DX003 (ip), vehicle: saline with Tween-80
[10] = dose: 200.0 mg/kg/injection, schedule: Q01DX009 (ip), vehicle: saline with Tween-80
[11] = dose: 50.0 mg/kg/injection, schedule: Q01DX009 (ip), vehicle: saline with Tween-80
[12] = dose: 100.0 mg/kg/injection, schedule: Q01DX009 (ip), vehicle: saline with Tween-80
[13] = dose: 6.25 mg/kg/injection, schedule: Q01DX009 (ip), vehicle: saline
[14] = dose: 12.5 mg/kg/injection, schedule: Q01DX009 (ip), vehicle: saline
[15] = dose: 25.0 mg/kg/injection, schedule: Q01DX009 (ip), vehicle: saline
[16] = dose: 50.0 mg/kg/injection, schedule: Q01DX005 (ip), vehicle: Klucel (hydroxypropylcellulose) (HPC)

With `CC1(C)CCCC2(C)OC(=O)C=C12` (configuration not stated) the T/C (dose: 3.12 mg/kg/injection, schedule: Q01DX005 (ip), vehicle: distilled water + Tween-80) was 105 % of control, the T/C (dose: 6.25 mg/kg/injection, schedule: Q01DX005 (ip), vehicle: distilled water + Tween-80) was 104 % of control and the T/C (dose: 12.5 mg/kg/injection, schedule: Q01DX005 (ip), vehicle: distilled water + Tween-80) was 94 % of control.
For `NC(=O)/C=C\C(=O)NC1CCSC1=O` (configuration not stated), the T/C (dose: 60.0 mg/kg/injection, schedule: Q01DX005 (ip), vehicle: saline + Tween-80 + alcohol) was 105 % of control, the T/C (dose: 120.0 mg/kg/injection, schedule: Q01DX005 (ip), vehicle: saline + Tween-80 + alcohol) was 94 % of control and the T/C (dose: 240.0 mg/kg/injection, schedule: Q01DX005 (ip), vehicle: saline + Tween-80 + alcohol) was 100 % of control.
`NC1(C(=O)O)CCCC1C(=O)O` (configuration not stated) was tested, and the T/C [1] was 99 % of control, the T/C [2] was 99 % of control and the T/C [3] was 90 % of control.
With `O=C1CCSC(=S)N1c1ccccc1C(F)(F)F` the T/C (dose: 50.0 mg/kg/injection, schedule: Q01DX009 (ip), vehicle: suspension in saline) was 90 % of control, the T/C (dose: 100.0 mg/kg/injection, schedule: Q01DX009 (ip), vehicle: suspension in saline) was 92 % of control and the T/C (dose: 200.0 mg/kg/injection, schedule: Q01DX009 (ip), vehicle: suspension in saline) was 99 % of control.
For `CCOC(=O)N1C(C)=CC=C/C1=C/C=C(C#N)C#N`, the T/C (dose: 100.0 mg/kg/injection, schedule: Q01DX001 (ip), vehicle: saline with Tween-80) was 94 % of control, the T/C (dose: 200.0 mg/kg/injection, schedule: Q01DX001 (ip), vehicle: saline with Tween-80) was 90 % of control and the T/C (dose: 400.0 mg/kg/injection, schedule: Q01DX001 (ip), vehicle: saline with Tween-80) was 89 % of control.
In the case of `N#CNC(=O)c1cccnc1`, the T/C [1] is reported as 99 % of control, the T/C [2] is reported as 94 % of control and the T/C [3] is reported as 99 % of control.
In the case of `O=C1C(Cl)=C(Sc2nc3ccccc3s2)C(=O)c2ccccc21`, the T/C [4] is reported as 100 % of control and the T/C [5] is reported as 100 % of control.
In the case of `Nc1ccc2c(c1)Oc1ccc(N)cc1O2`, the T/C [6] is reported as 102 % of control, the T/C [7] is reported as 100 % of control and the T/C [8] is reported as 106 % of control.
In the case of `CC12CCN=C1c1ccc3cc(O)ccc3c1CC2` (configuration not stated), the T/C (dose: 100.0 mg/kg/injection, schedule: Q01DX001 (sc), vehicle: steriod suspending solution) is reported as 104 % of control, the T/C (dose: 200.0 mg/kg/injection, schedule: Q01DX001 (sc), vehicle: steriod suspending solution) is reported as 118 % of control and the T/C (dose: 400.0 mg/kg/injection, schedule: Q01DX001 (sc), vehicle: steriod suspending solution) is reported as 100 % of control.
For `CC1(C)N=C(N)N=C(N)N1c1ccc(CNC(=O)Nc2ccc(S(=O)(=O)F)cc2)c(Cl)c1`, the T/C (dose: 132.0 mg/kg/injection, schedule: Q04DX003 (ip), vehicle: saline with Tween-80) was 154 % of control and the T/C [9] was 154 % of control.
For `O=C1C=CC(=O)N1C(=O)NC(NC(=O)N1C(=O)C=CC1=O)c1cccc2ccccc12`, the T/C (dose: 50.0 mg/kg/injection, schedule: Q01DX005 (ip), vehicle: saline with Tween-80) was 100 % of control, the T/C (dose: 100.0 mg/kg/injection, schedule: Q01DX005 (ip), vehicle: saline with Tween-80) was 99 % of control and the T/C (dose: 200.0 mg/kg/injection, schedule: Q01DX005 (ip), vehicle: saline with Tween-80) was 90 % of control.
`[Cl][Rh][Cl].[NH-]c1nc2c(ccc3ccccc32)s1.[NH-]c1nc2c(ccc3ccccc32)s1.[NH-]c1nc2c(ccc3ccccc32)s1.[NH-]c1nc2c(ccc3ccccc32)s1` was tested, and the T/C (dose: 100.0 mg/kg/injection, schedule: Q04DX003 (ip), vehicle: saline) was 108 % of control, the T/C (dose: 200.0 mg/kg/injection, schedule: Q04DX003 (ip), vehicle: saline) was 109 % of control and the T/C (dose: 400.0 mg/kg/injection, schedule: Q04DX003 (ip), vehicle: saline) was 105 % of control.
`O=C(/C=C/c1ccc(Cl)c(Cl)c1)c1ccccc1` was tested, and the T/C [10] was 100 % of control.
For `NNC(=O)c1ccc(OCc2nc3ccccc3[nH]2)cc1`, the T/C (dose: 3.12 mg/kg/injection, schedule: Q01DX005 (ip), vehicle: saline with Tween-80) was 100 % of control, the T/C (dose: 6.25 mg/kg/injection, schedule: Q01DX005 (ip), vehicle: saline with Tween-80) was 100 % of control and the T/C [4] was 98 % of control. For the same molecule, the T/C [5] was 94 % of control.
`OC1(c2cccnc2)C=CCC1` (configuration not stated) was tested, and the T/C [11] was 100 % of control, the T/C [12] was 102 % of control and the T/C [10] was 100 % of control.
For `CCCCCCCCCCCC(=O)CCCCC`, the T/C (dose: 100.0 mg/kg/injection, schedule: Q01DX009 (ip), vehicle: other) was 90 % of control, the T/C (dose: 200.0 mg/kg/injection, schedule: Q01DX009 (ip), vehicle: other) was 100 % of control and the T/C (dose: 400.0 mg/kg/injection, schedule: Q01DX009 (ip), vehicle: other) was 104 % of control.
For `Cc1cc(C)nc(/C=C/c2ccc(/C=C/c3cc(C)cc(C)n3)cc2)c1`, the T/C [6] was 97 % of control, the T/C [7] was 87 % of control and the T/C [8] was 92 % of control.
In the case of `c1ccc(-n2ncc3ccc4cccn4c32)cc1`, the T/C [6] is reported as 108 % of control, the T/C [7] is reported as 111 % of control and the T/C [8] is reported as 120 % of control.
For `CC(=O)c1ccc[n+](Cc2c(Cl)cccc2Cl)c1`, the T/C [13] was 101 % of control, the T/C [14] was 100 % of control and 104 % of control and the T/C [15] was 101 % of control and 114 % of control.
`COc1cccc2c1C(=O)c1c(O)c3c(c(O)c1C2=O)C[C@@](O)(C(=O)CO)C[C@@H]3OC1CC(NC(=S)Nc2ccc3ccccc3c2)C(O)C(C)O1` (some centres not stated) was tested, and the T/C (dose: 3.13 mg/kg/injection, schedule: Q01DX009 (ip), vehicle: saline) was 92 % of control, the T/C [13] was 99 % of control and the T/C [14] was 99 % of control. For the same molecule, the T/C [15] was 101 % of control and the T/C [1] was 108 % of control.
For `COc1ccc(C=C2C(=O)N(C)C(=O)N(C)C2=O)cc1`, the T/C [11] was 112 % of control and the T/C [12] was 118 % of control.
In the case of `c1ccc(-c2nnc(-c3ccccc3)nn2)cc1`, the T/C (dose: 50.0 mg/kg/injection, schedule: Q04DX003 (ip), vehicle: saline with Tween-80) is reported as 100 % of control, the T/C (dose: 100.0 mg/kg/injection, schedule: Q04DX003 (ip), vehicle: saline with Tween-80) is reported as 100 % of control and the T/C [9] is reported as 97 % of control. The T/C (dose: 400.0 mg/kg/injection, schedule: Q04DX003 (ip), vehicle: saline with Tween-80) was 93 % of control.
`CCc1[nH]nc(-c2n[nH]c(CC)c2C)c1C` was tested, and the T/C (dose: 60.0 mg/kg/injection, schedule: Q01DX005 (ip), vehicle: saline) was 100 % of control, the T/C (dose: 120.0 mg/kg/injection, schedule: Q01DX005 (ip), vehicle: saline) was 102 % of control and the T/C (dose: 240.0 mg/kg/injection, schedule: Q01DX005 (ip), vehicle: saline) was 98 % of control.
`O=C(c1ccccc1)C(c1ccccc1)n1nccc1-c1ccccc1` (configuration not stated) was tested, and the T/C (dose: 50.0 mg/kg/injection, schedule: Q01DX009 (ip), vehicle: Klucel (hydroxypropylcellulose) (HPC)) was 105 % of control, the T/C (dose: 100.0 mg/kg/injection, schedule: Q01DX009 (ip), vehicle: Klucel (hydroxypropylcellulose) (HPC)) was 105 % of control and the T/C (dose: 200.0 mg/kg/injection, schedule: Q01DX009 (ip), vehicle: Klucel (hydroxypropylcellulose) (HPC)) was 99 % of control.
`CN(C)c1ncnc2c1ncn2C1CCCCO1` (configuration not stated) was tested, and the T/C (dose: 12.5 mg/kg/injection, schedule: Q01DX005 (ip), vehicle: Klucel (hydroxypropylcellulose) (HPC)) was 103 % of control, the T/C (dose: 25.0 mg/kg/injection, schedule: Q01DX005 (ip), vehicle: Klucel (hydroxypropylcellulose) (HPC)) was 105 % of control and the T/C [16] was 100 % of control.
`Cn1cnc2c(F)ncnc21` was tested, and the T/C [16] was 100 % of control and the T/C (dose: 100.0 mg/kg/injection, schedule: Q01DX005 (ip), vehicle: Klucel (hydroxypropylcellulose) (HPC)) was 101 % of control.
In the case of `O=C(O)C1=Cc2ccccc2OC1`, the T/C (dose: 100.0 mg/kg/injection, schedule: Q04DX003 (ip), vehicle: Klucel (hydroxypropylcellulose) (HPC)) is reported as 101 % of control, the T/C (dose: 200.0 mg/kg/injection, schedule: Q04DX003 (ip), vehicle: Klucel (hydroxypropylcellulose) (HPC)) is reported as 107 % of control and the T/C (dose: 400.0 mg/kg/injection, schedule: Q04DX003 (ip), vehicle: Klucel (hydroxypropylcellulose) (HPC)) is reported as 105 % of control.
`COc1ccc(C[n+]2ccc3c([N+](=O)[O-])cccc3c2)cc1` was tested, and the T/C (dose: 7.5 mg/kg/injection, schedule: Q01DX005 (ip), vehicle: saline + Tween-80 + alcohol) was 111 % of control, the T/C (dose: 15.0 mg/kg/injection, schedule: Q01DX005 (ip), vehicle: saline + Tween-80 + alcohol) was 116 % of control and the T/C (dose: 30.0 mg/kg/injection, schedule: Q01DX005 (ip), vehicle: saline + Tween-80 + alcohol) was 116 % of control.

Reference: PubChem BioAssay AID330 (DTP/NCI, 2004)
